Data published in ChEMBL document CHEMBL3774383, “Design and synthesis of [(125)I]Pyricoxib: A novel (125)I-labeled cyclooxygenase-2 (COX-2) inhibitors” (Bioorg Med Chem Lett, 2016).

Experiments:
[1] = biological target: T1, Prostaglandin G/H synthase 1 (Ovis aries, UniProt P05979); assay: Inhibition of ovine COX-1 preincubated for 5 mins followed by addition of arachidonic acid as substrate measured after 2 mins by fluorescence analysis
T1 sequence (P05979 whole entry): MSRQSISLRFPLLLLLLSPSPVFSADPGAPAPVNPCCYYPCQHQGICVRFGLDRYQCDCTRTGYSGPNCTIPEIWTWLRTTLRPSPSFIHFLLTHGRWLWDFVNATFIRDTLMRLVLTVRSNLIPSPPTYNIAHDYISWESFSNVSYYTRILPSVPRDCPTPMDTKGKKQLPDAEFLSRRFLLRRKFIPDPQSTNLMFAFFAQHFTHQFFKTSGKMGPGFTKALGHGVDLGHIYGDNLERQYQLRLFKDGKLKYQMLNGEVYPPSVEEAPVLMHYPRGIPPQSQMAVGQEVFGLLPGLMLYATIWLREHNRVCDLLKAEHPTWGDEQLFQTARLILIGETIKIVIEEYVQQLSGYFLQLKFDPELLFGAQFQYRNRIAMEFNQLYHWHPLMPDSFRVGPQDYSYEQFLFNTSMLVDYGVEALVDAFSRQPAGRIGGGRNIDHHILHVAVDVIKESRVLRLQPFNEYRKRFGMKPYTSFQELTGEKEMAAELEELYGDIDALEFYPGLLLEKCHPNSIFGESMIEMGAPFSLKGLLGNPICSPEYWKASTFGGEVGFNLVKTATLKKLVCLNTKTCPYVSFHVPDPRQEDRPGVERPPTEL

[2] = biological target: T2, Prostaglandin G/H synthase 2 (Homo sapiens, UniProt P35354)
T2 sequence (P35354 whole entry): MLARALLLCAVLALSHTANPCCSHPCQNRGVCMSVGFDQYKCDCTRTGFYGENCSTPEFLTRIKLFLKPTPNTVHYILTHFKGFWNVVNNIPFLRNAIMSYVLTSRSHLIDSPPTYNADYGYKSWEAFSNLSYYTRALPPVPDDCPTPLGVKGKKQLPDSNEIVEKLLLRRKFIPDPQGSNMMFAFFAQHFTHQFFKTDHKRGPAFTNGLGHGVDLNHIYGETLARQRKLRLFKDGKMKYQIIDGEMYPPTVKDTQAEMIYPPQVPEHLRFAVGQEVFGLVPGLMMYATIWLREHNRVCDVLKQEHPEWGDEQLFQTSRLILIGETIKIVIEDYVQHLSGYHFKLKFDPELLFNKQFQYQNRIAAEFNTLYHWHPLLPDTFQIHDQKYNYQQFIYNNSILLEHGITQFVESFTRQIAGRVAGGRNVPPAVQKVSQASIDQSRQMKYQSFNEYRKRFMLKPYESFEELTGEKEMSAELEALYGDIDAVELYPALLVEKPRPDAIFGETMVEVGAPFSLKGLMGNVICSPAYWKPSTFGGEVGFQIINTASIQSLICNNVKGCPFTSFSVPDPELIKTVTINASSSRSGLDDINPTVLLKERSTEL

[3] = Selectivity index,ratio of IC50 for ovine COX-1 to recombinant human COX-2
[4] = biological target: T2, Prostaglandin G/H synthase 2; assay: Inhibition of COX-2 (unknown origin)
[5] = biological target: COX-1/COX-2 (Homo sapiens) (UniProt P35354+P23219); assay: Selectivity index, ratio of IC50 for COX-2 (unknown origin) to COX-1 (unknown origin)
COX-1/COX-2 (Homo sapiens), sequence (P23219 whole entry, looked up, one chain of several): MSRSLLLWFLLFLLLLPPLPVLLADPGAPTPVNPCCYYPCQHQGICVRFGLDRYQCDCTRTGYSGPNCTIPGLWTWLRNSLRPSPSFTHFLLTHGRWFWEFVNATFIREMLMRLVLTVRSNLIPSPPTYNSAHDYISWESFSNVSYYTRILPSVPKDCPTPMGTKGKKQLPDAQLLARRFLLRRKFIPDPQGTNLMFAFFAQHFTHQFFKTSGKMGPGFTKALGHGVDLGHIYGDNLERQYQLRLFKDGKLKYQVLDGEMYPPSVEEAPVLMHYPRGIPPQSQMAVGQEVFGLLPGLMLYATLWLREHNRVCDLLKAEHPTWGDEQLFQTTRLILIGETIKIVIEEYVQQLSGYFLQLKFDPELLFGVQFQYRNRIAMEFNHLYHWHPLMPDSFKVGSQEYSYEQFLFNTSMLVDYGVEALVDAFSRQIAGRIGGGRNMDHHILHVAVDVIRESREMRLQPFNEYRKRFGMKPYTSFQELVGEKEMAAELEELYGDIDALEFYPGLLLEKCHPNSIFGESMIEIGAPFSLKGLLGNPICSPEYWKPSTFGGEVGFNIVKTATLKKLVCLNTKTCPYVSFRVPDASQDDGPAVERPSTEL

| Structure (SMILES) | IC50 [1] [µM] | IC50 [2] [nM] | Ratio IC50 [3] | IC50 [4] [µM] | Ratio IC50 [5] |
| --- | --- | --- | --- | --- | --- |
| Cc1ccc(Nc2c(F)cccc2Cl)c(CC(=O)O)c1 [LUMIRACOXIB] |  |  |  | 0.06 |  |
| CS(=O)(=O)c1ccc(-c2cc(C(F)(F)F)nc(NCc3ccc(F)cc3)n2)cc1 | > 100 |  |  |  |  |
| CS(=O)(=O)c1ccc(-c2cc(C(F)(F)F)nc(NCc3ccc(I)cc3)n2)cc1 | > 100 | 850 | > 100 |  |  |
| NS(=O)(=O)c1ccc(-n2nc(C(F)(F)F)cc2-c2ccc(I)cc2)cc1 |  |  |  | 8.2 | 10 |

Further lines, results first:

| IC50 [1] [µM] | IC50 [2] [nM] | Ratio IC50 [3] | IC50 [4] [µM] | Ratio IC50 [5] | Structure (SMILES) |
| --- | --- | --- | --- | --- | --- |
| > 100 | 2500 | > 40 |  |  | CS(=O)(=O)c1ccc(-c2cc(C(F)(F)F)nc(OCc3ccc(I)cc3)n2)cc1 |
|  |  |  | 5.2 |  | CS(=O)(=O)c1ccc(-n2nc(C(F)(F)F)cc2-c2ccc(I)cc2)cc1 |
| > 100 | 13000 | > 7.5 |  |  | NS(=O)(=O)c1ccc(-c2cc(C(F)(F)F)nc(NCc3ccc(I)cc3)n2)cc1 |
|  |  |  | 2.5 | 10 | Cc1ccc(Nc2c(F)cccc2I)c(CC(=O)O)c1 |
